Reference: PMC5132016 (Clinical Pharmacology in Drug Development, 2016)

Key:
[1] = Single-dose pharmacokinetics of EE and LN; assay type: in vivo, human; conditions: for Tmax: single oral Microgynon 30 alone, median (range), n = 19
[2] = tofacitinib 30 mg twice daily; cited from earlier work
[3] = cited from earlier work
[4] = Microgynon 30 + tofacitinib / Microgynon 30 alone
[5] = female, human, plasma, oral, adjusted geometric mean, Reference (Microgynon 30 alone)
[6] = tofacitinib 30 mg twice daily vs Microgynon 30 alone

C#C[C@]1(O)CC[C@H]2[C@@H]3CCC4=CC(=O)CC[C@@H]4[C@H]3CC[C@@]21CC [Levonorgestrel, levonorgestrel]
Ratio (Test/Reference) of adjusted geometric means, AUClast [1, 4]: 104.60%
Ratio (Test/Reference) of adjusted geometric means, AUC∞ [1, 4]: 100.87%
Ratio (Test/Reference) of adjusted geometric means, Cmax [1, 4]: 112.19%
AUC(0-t) ([1]; female, human, plasma, oral, AUClast, adjusted geometric mean, Reference (Microgynon 30 alone)): 35 ng·h/mL
AUC(0-inf) [1, 5]: 44.6 ng·h/mL
Cmax ([1]; female, human, plasma, oral, Cmax, adjusted geometric mean, Reference (Microgynon 30 alone)): 3.78 ng/mL
Tmax [1]: 1.0 (1.0–2.0) h
Increase of AUC∞ in the presence of tofacitinib [1, 6]: 0.9%
Increase of maximal plasma concentration when coadministered with tofacitinib [1, 6]: 12.2%

Cc1ncc2n1-c1ccc(Cl)cc1C(c1ccccc1F)=NC2 [midazolam]
Change in Cmax when coadministered with tofacitinib [2]: no change
Change in total exposure (AUC∞) when coadministered with tofacitinib [2]: no change

C[C@@H]1CCN(C(=O)CC#N)C[C@@H]1N(C)c1ncnc2[nH]ccc12 [Tofacitinib]
Effect on the pharmacokinetics of EE and LN ([1]; tofacitinib 30 mg twice daily for 11 days, healthy women): no clinically relevant net inhibitory or inductive effect
Nonrenal share of clearance [3]: 70%
Renally excreted share of clearance [3]: 30%
Share of metabolism by CYP3A4 [3]: approximately 55%

C#C[C@]1(O)CC[C@H]2[C@@H]3CCc4cc(O)ccc4[C@H]3CC[C@@]21C [Ethinylestradiol, ethinylestradiol]
AUC(0-inf) [1, 5]: 0.716 ng·h/mL
Tmax [1]: 1.5 (1.0–2.1) h
Decrease of maximal plasma concentration when coadministered with tofacitinib [1, 6]: 10.4%
Increase of AUC∞ in the presence of tofacitinib [1, 6]: 6.6%
